Source: the NIST ThermoML archive (doi:10.1016/j.jct.2004.09.014)

Test: xn = mol fraction of the nth substance listed
Conditions: 101.3 kPa, Liquid

CCOC(C)(C)C [2-ethoxy-2-methylpropane] + COCCO
mass density [kg/m3]
Conditions | 293.15 K | 298.15 K | 303.15 K | 308.15 K | 313.15 K
x1 = 0.0501 | 950.05 | 944.7 | 939.45 | 934.22 | 928.99
x1 = 0.1 | 936.06 | 930.57 | 925.31 | 919.94 | 914.61
x1 = 0.1508 | 921.99 | 916.4 | 911.08 | 905.73 | 900.29
x1 = 0.2 | 908.51 | 902.92 | 897.66 | 892.25 | 886.78
x1 = 0.2512 | 894.84 | 889.15 | 883.86 | 878.57 | 873.09
x1 = 0.299 | 882.19 | 876.57 | 871.27 | 865.98 | 860.41
x1 = 0.3489 | 869.14 | 863.45 | 858.24 | 852.9 | 847.36
x1 = 0.4 | 856.06 | 850.34 | 845.06 | 839.8 | 834.21
x1 = 0.4503 | 843.79 | 837.98 | 832.77 | 827.45 | 821.87
x1 = 0.499 | 832.46 | 826.63 | 821.36 | 816.1 | 810.51
x1 = 0.55 | 821.14 | 815.31 | 810.08 | 804.81 | 799.19
x1 = 0.61 | 808.56 | 802.72 | 797.49 | 792.22 | 786.6
x1 = 0.6599 | 798.66 | 792.76 | 787.53 | 782.25 | 776.65
x1 = 0.7 | 790.96 | 785.07 | 779.87 | 774.61 | 769.03
x1 = 0.7511 | 781.59 | 775.75 | 770.56 | 765.33 | 759.73
x1 = 0.8 | 773.01 | 767.18 | 762.01 | 756.8 | 751.25
x1 = 0.8489 | 764.84 | 759.04 | 753.94 | 748.76 | 743.21
x1 = 0.9 | 756.5 | 750.81 | 745.76 | 740.66 | 735.16
x1 = 0.949 | 748.89 | 743.23 | 738.32 | 733.24 | 727.78
x1 = 1 | 741.11 | 735.59 | 730.85 | 725.98 | 720.69

COCCOCCO [2-(2-methoxyethoxy)ethanol] + CCOC(C)(C)C
mass density [kg/m3]
Conditions | 293.15 K | 298.15 K | 303.15 K | 308.15 K | 313.15 K
x2 = 0 | 1020.8 | 1016.4 | 1011.83 | 1007.69 | 1003.22
x2 = 0.0501 | 1008.17 | 1003.25 | 998.3 | 993.76 | 988.94
x2 = 0.1 | 995.15 | 990.04 | 984.9 | 980.19 | 975.19
x2 = 0.1459 | 982.68 | 977.43 | 972.25 | 967.46 | 962.35
x2 = 0.1998 | 967.77 | 962.42 | 957.22 | 952.39 | 947.16
x2 = 0.2556 | 951.99 | 946.59 | 941.41 | 936.49 | 931.19
x2 = 0.3031 | 938.38 | 932.91 | 927.71 | 922.72 | 917.37
x2 = 0.3521 | 924.22 | 918.7 | 913.47 | 908.42 | 902.96
x2 = 0.4004 | 910.16 | 904.58 | 899.35 | 894.26 | 888.75
x2 = 0.4511 | 895.34 | 889.68 | 884.41 | 879.28 | 873.72
x2 = 0.4998 | 881.09 | 875.34 | 870.08 | 864.91 | 859.34
x2 = 0.5628 | 862.65 | 856.89 | 851.64 | 846.47 | 840.9
x2 = 0.5997 | 851.96 | 846.15 | 840.91 | 835.75 | 830.21
x2 = 0.6621 | 833.91 | 828.16 | 822.99 | 817.83 | 812.29
x2 = 0.6997 | 823.14 | 817.44 | 812.33 | 807.17 | 801.6
x2 = 0.7411 | 811.55 | 805.81 | 800.69 | 795.54 | 790.02
x2 = 0.7995 | 795.39 | 789.63 | 784.53 | 779.35 | 773.85
x2 = 0.8401 | 784.28 | 778.52 | 773.45 | 768.28 | 762.75
x2 = 0.8998 | 768.16 | 762.41 | 757.39 | 752.25 | 746.7
x2 = 0.9498 | 754.72 | 748.99 | 744.04 | 738.99 | 733.52
